Publication PMC12316928, “Synthesis and evaluation of novel thiohydantoin derivatives for antidiabetic activity using in silico in vitro and in vivo methods” (Scientific Reports, 2025)
Converted amounts (≈) assume the structure as drawn. “And” between values parts separate entries of the source, which are not always exact repeats. Identical values can stand only once. “Also recorded” adds a separate entry of the source. Like-named read-outs stand apart in the source and are kept apart here.

Assays:
α-amylase = target: T1, α-amylase (Sus scrofa, UniProt P00690); assay: α-Amylase inhibitory activity assay (DNSA method); format: biochemical
T1 sequence (P00690 16-511): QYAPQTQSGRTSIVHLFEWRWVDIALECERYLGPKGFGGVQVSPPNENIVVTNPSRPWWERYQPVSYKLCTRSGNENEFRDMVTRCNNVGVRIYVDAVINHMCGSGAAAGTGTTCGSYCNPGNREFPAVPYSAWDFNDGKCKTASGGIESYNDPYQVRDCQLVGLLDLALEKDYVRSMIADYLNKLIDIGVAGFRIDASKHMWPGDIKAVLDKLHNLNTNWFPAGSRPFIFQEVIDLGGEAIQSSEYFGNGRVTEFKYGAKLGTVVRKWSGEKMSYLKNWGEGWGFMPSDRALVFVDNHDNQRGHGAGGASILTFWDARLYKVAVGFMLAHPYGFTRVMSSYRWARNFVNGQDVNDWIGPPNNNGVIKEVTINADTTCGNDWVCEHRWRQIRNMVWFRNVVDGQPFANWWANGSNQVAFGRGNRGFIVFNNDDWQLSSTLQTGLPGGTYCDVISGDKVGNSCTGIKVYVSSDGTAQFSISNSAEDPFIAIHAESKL
Method: The inhibitory potential of the synthesized derivatives against α-amylase was determined using the DNSA (3,5-dinitrosalicylic acid) colorimetric method, as reported by Bernfeld[37]. The α-amylase enzyme (from Sigma-Aldrich) was prepared in 20 mM sodium phosphate buffer (pH 6.9). […] After incubation, 100 µL of DNSA reagent was added, and the mixture was heated at 85 °C for 15 min. The reaction was stopped by cooling, and the absorbance was measured at 595 nm. A blank control was prepared to adjust background absorbance, and the percentage inhibition was calculated.

[1] = tested on: STZ-induced diabetic rats; assay: Fasting blood glucose and oral glucose tolerance test (OGTT); format: in vivo, Sprague Dawley rats; details: for OGTT (after 120 min): 120 min after glucose 2.0 g/kg; for Fasting blood glucose: Table 7, mean ± SD, 5 rats per group; for FBG and OGTT reduction in words: compared to diabetic control
Method: […] After 5 days of streptozotocin injection, the tail vein blood will be collected to determine the fasting blood glucose (FBG) level. Only rats with FBG over 200 mg/dl will be considered diabetic and used for further experimentation.
This assay will be performed in animals after fasting for an overnight (12 h). Then, rats will receive a bolus of glucose (2.0 g/kg body weight) followed by test molecule or control and plasma glucose will be measured from blood collected from tail vein at 0, 30, 60, 90 and 120 min after glucose administration. Plasma glucose levels will be analyzed using commercially available glucometer kits[40].

[2] = tested on: STZ-induced diabetic rats; assay: Effect on FBG, body weight and HbA1C over 6 weeks; format: in vivo, Sprague Dawley rats; design: % Reduction in FBG: concentration or dose not given beside the values
Method: (§1) Diabetes will be induced in rats (n = 6 per group) by a single intraperitoneal injection of 60-100 mg/kg body weight (BW) streptozotocin dissolved in normal saline. After 5 days of streptozotocin injection, the tail vein blood will be collected to determine the fasting blood glucose (FBG) level. Only rats with FBG over 200 mg/dl will be considered diabetic and used for further experimentation.
Diabetic Rats (n = 6 per group) will be randomly assigned to groups of six animals each in order to examine the impact of synthetic derivatives on FBG level, BW, and HbA1C. The course of treatment will last for six weeks. At the beginning of the experiment and at weekly intervals during the first 42 days of therapy, the FBG level and BW will be measured. Rats will be denied food for 12 h while fasting, but they will have unrestricted access to water. Commercial glucose oxidase kits will be used to measure the blood glucose level. Blood 7 will be collected through cardiac puncture at the end of study period and levels of HbA1C will be determined. Metformin will be used as standard for comparison purpose.

3T3 fibroblast cell line = assay: Cytotoxicity MTT assay; format: cell-based; details: for IC₅₀ cytotoxicity MTT: 48 h, Mean ± SD, n = 3
Method: (§2) The cytotoxic effects of the selected compounds were evaluated against the 3T3 fibroblast cell line (Sigma-Aldrich, product no. 90020107) using the MTT (3-(4,5-dimethylthiazol-2-yl)−2,5-diphenyl tetrazolium bromide) assay, following the protocol established by Mosmann[38]. A cell suspension containing 1 × 10⁵ cells per well was seeded into a 96-well plate and incubated at 37 °C with 5% CO₂ for 48 h. The cells were then treated with different concentrations of test compounds (4, 16, 63, 250, and 1000 µg/mL, dissolved in DMSO) and incubated for an additional 48 h. Following incubation, 180 µL of MTT solution (5 mg/mL in PBS) was added to each well and incubated for 4 h. The formazan crystals formed were solubilized, and absorbance was measured at 570 nm using an ELISA reader. Celecoxib was used as a positive control.

Cytotoxicity MTT assay = format: cell-based; details: mouse, 3T3 fibroblast cells, 48 h, Mean ± SD, n = 3, read-out: IC₅₀ cytotoxicity MTT
Method: as §2

[3] = DPPH free radical scavenging assay
Method: The antioxidant activity of synthesized compounds was evaluated using the DPPH free-radical scavenging assay, following the methodology outlined by[34]. This assay is based on the principle that the stable free radical DPPH undergoes a color change from deep purple to yellow upon reduction, indicating hydrogen donation from antioxidant compounds. Different concentrations (3.12, 6.25, 12.5, 25, 50, 100, and 200 µg/mL) of test compounds were prepared in methanol. A 200 µL aliquot of each concentration was mixed with 50 µL of freshly prepared DPPH solution (0.659 mM). The reaction mixtures were incubated at room temperature for 20 min in the dark. Absorbance was recorded at 510 nm using an ELISA microplate reader. Trolox was employed as the reference antioxidant, and the percentage of inhibition was calculated using the following equation:
% Inhibition = [(A0 − A1)/A0] × 100.
Where A0 is the absorbance of the control, and A1 is the absorbance of the sample[34].

[4] = tested on: STZ-induced diabetic rats; assay: Physiological parameters (lipid profile); format: in vivo, Sprague Dawley rats; details: Fig. 1
Method: as §1
Animals will be sacrificed after […] of treatment and parameters including LDL, triglycerides, HDL cholesterol, and glucose will be determined by using KONELAB SYSTEM (Thermo Fisher Scientific, Finland) according to manufacturer’s guidelines.

[5] = target: T2, α-glucosidase (EC3.2.1.20) (Saccharomyces cerevisiae, UniProt P53341); assay: α-Glucosidase inhibitory activity assay; format: biochemical; details: for inhibition at 200 µg/mL: read-out: %Inhibition (200 µg/ml) alpha glucosidase
T2 construct: purchased Sigma-Aldrich
T2 sequence (P53341 whole entry): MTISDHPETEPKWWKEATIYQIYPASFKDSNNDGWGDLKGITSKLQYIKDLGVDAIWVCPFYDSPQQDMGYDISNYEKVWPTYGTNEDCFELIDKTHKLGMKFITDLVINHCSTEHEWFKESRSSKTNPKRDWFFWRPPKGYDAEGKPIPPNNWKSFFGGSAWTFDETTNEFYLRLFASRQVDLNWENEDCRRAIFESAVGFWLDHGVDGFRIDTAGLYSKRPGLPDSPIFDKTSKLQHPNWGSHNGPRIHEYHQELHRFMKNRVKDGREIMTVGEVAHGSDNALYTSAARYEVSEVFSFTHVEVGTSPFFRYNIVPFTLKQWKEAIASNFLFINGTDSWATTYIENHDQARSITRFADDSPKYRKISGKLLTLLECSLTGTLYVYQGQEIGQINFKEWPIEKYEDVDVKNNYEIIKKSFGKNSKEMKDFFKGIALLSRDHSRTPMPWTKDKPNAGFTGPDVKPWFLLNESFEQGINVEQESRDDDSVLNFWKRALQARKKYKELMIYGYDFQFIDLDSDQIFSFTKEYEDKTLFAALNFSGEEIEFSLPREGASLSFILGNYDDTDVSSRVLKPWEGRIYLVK
Method: The ability of the synthesized compounds to inhibit α-glucosidase was determined as per the method described by[35]. […] After incubation at 37 °C for 10 min, the reaction was initiated by adding 25 µL of substrate (4 mM) and further incubating at 37 °C for 20 min. The absorbance was measured at 405 nm.

Row | Structure (SMILES) | OGTT (after 120 min) [1] [mg/dL] | Fasting blood glucose [1] [mg/dL] | FBG and OGTT reduction in words [1] | Cytotoxicity category (3T3 fibroblast cell line) | IC₅₀ cytotoxicity MTT (3T3 fibroblast cell line) [µg/mL] | IC50 at 48 h (Cytotoxicity MTT assay) [µg/mL] | DPPH free radical scavenging % inhibition ([3]; 3.12 µg/mL) [%] | DPPH free radical scavenging % inhibition ([3]; 6.25 µg/mL) [%] | DPPH free radical scavenging % inhibition ([3]; 12.5 µg/mL) [%] | DPPH free radical scavenging % inhibition ([3]; 25 µg/mL) [%] | DPPH free radical scavenging % inhibition ([3]; 50 µg/mL) [%] | DPPH free radical scavenging % inhibition ([3]; 100 µg/mL) [%] | DPPH free radical scavenging % inhibition ([3]; 200 µg/mL) [%] | alpha-amylase inhibition in words (α-amylase) | inhibition at 200 µg/mL [5] [%] | alpha-glucosidase inhibition in words [5] | other results
1 | C[C@H]1O[C@H](O[C@H]2[C@H](O)[C@@H](O)[C@@H](O[C@H]3[C@H](O)[C@@H](O)C(O)O[C@@H]3CO)O[C@@H]2CO)[C@H](O)[C@@H](O)[C@@H]1N[C@H]1C=C(CO)[C@@H](O)[C@H](O)[C@H]1O (some centres unmarked) [Acarbose, reference compound] |  |  |  |  |  |  |  |  |  |  |  |  |  |  |  |  | %Inhibition alpha amylase (α-amylase; positive control Acarbose 50 µg/ml, Mean ± SD): 92.23 ± 1.08%
2 | CC(=O)Nc1ccc(S(=O)(=O)N2CC(=O)NC2=S)cc1 [FP1, N-[4-(4-oxo-2-sulfanylideneimidazolidine-1-sulfonyl)phenyl]acetamide] | 310.3 ± 10.7 | 245.9 ± 8.2 | mild but significant activity | negligible cytotoxicity; also recorded: Non-toxic | > 1000 ± 0.0 | > 900 | 12.5 ± 1.1 | 24.7 ± 1.8 | 38.1 ± 2.3 | 51.5 ± 2.7 | 58.9 ± 2.9 | 63.4 ± 3.0 | 67.3 ± 3.2 | lack of inhibition | 45.7 ± 1.12 |  | BW (Day 0) ([2]; Day 0, baseline): 217.5 ± 8.3 g; FBG (Day 0) ([2]; Day 0, baseline): 282.8 ± 10.3 mg/dL; % Change in BW ([2]; Day 0 to Day 42): −8.7%; % Reduction in FBG ([2]; Day 0 to Day 42): 17.6%; BW (Day 42) ([2]; Day 42 of treatment): 198.6 ± 7.8 g; FBG (Day 42) ([2]; Day 42 of treatment): 232.9 ± 9.7 mg/dL; HbA1C ([2]; end of 6-week treatment): 8.1% and 8.1 ± 0.4%; IC₅₀ (concentration required to inhibit 50% of DPPH free radicals) [3]: 76.5 ± 2.9 µg/mL; lipid profile effect in words [4]: marginal effects
3 | Cc1ccc(S(=O)(=O)N2CC(=O)NC2=S)cc1 [FP3, 1-(4-methylbenzene-1-sulfonyl)−2-sulfanylideneimidazolidin-4-one] | 320.8 ± 11.3 | 255.7 ± 9.0 | minor reductions | Low cytotoxicity |  | 722 ± 15.3 (≈ 2670 µM) | 9.2 ± 0.9 | 18.5 ± 1.4 | 27.9 ± 1.8 | 38.3 ± 2.1 | 45.7 ± 2.3 | 51.2 ± 2.5 | 55.8 ± 2.7 | lack of inhibition |  | inactive | inhibition at 200 µg/mL ([5]; sample concentration 200 µg/ml, Mean ± SD): 29.4 ± 1.08%
4 | O=C1CN(S(=O)(=O)c2cc(C(=O)O)ccc2Cl)C(=S)N1 [FP7, 4-chloro-3-(4-oxo-2-sulfanylideneimidazolidine-1-sulfonyl)benzoic acid] | 325.0 ± 11.6 | 258.2 ± 9.4 | minor reductions | negligible cytotoxicity; also recorded: Non-toxic | > 1000 ± 0.0 | > 900 | 7.6 ± 0.7 | 14.8 ± 1.0 | 21.5 ± 1.4 | 30.2 ± 1.8 | 39.5 ± 2.0 | 43.7 ± 2.3 | 47.2 ± 2.5 | lack of inhibition | 27.3 ± 0.91 | inactive | 
